According to patent publication US7157466B2, “Quinazoline ditosylate salt compounds” (SmithKline Beecham (Cork) Limited, priority 2000, dated 2007):
Like-named read-outs stand apart in the source and are kept apart here.

Assays:
[1] = Slurry equilibration, relative physical stability of anhydrate and monohydrate crystal forms; conditions: 25° C.; for Equilibrium Form: 1:1 anhydrate/monohydrate slurry in MeOH/H2O
[2] = test system: head and neck (HN5) cell line; assay: Methylene blue growth inhibition assay, HN5; format: cell-based; conditions: Homo sapiens, read-out: HN5 IC50 uM Cell
Procedure: (§1) Human breast (BT474), head and neck (HN5) and gastric tumor (N87) cell lines and human foreskin Fibroblasts (HFF) were cultured in low glucose DMEM (Life Technologies 12320-032) containing 10% fetal bovine serum (FBS) at 37° C. in a humidified 10% CO2, 90% air incubator. The SV40 transformed human mammary epithelial cell line HB4a was transfected with either human H-ras cDNA (HB4a r4.2) or the human c-erbB2 cDNA (HB4a c5.2). The HB4a clones were cultured in RPMI containing 10% FBS, insulin (5 μg/ml), hydrocortisone (5 μg/ml), supplemented with the selection agent hygromycin B (50 μg/ml). Cells were harvested using trypsin/EDTA, counted using a haemocytometer, and plated in […] of the appropriate media, at the following densities, in a 96-well tissue culture plate (Falcon 3075): BT474 10,000 cells/well, HN5 3,000 cells/well, N87 10,000 cells/well, HB4a c5.2 3,000 cells/well, HB4a r4.2 3,000 cells/well, HFF 2500 cells/well. The next day, compounds were diluted in DMEM containing 100 mg/ml gentamicin, at twice the final required concentration, from 10 mM stock solutions in DMSO. 100 ml/well of these dilutions were added to the 100 ml of media currently on the cell plates. Medium containing 0.6% DMSO was added to control wells. Compounds diluted in DMEM were added to all cell lines, including the HB4a r4.2 and HB4a c5.2 cell lines. The final concentration of DMSO in all wells was 0.3%. Cells were incubated at 37° C., 10% CO2 for 3 days. Medium was removed by aspiration. Cell biomass was estimated by staining cells with 100 μl per well methylene blue (Sigma M9140, 0.5% in 50:50 ethanol:water), and incubation at room temperature for at least 30 minutes. Stain was removed, and the plates rinsed under a gentle stream of water, and air-dried. To release stain from the cells 100 μl of solubilization solution was added (1% N-lauroyl sarcosine, Sodium salt, Sigma L5125, in PBS), and plates were shaken gently for about 30 minutes. Optical density at 620 nm was measured on a microplate reader. Percent inhibition of cell growth was calculated relative to vehicle treated control wells. […]

[3] = test system: gastric tumor (N87) cell line; assay: Methylene blue growth inhibition assay, N87; format: cell-based; conditions: Homo sapiens, 72 h, read-out: N87 IC50 uM Cell
Procedure: as §1, with “The next day, compounds were diluted in DMEM containing 100 mg/ml gentamicin, at twice the final required concentration, from 10 mM stock solutions in DMSO. 100 ml/well of these dilutions were added to the 100 ml of media currently on the cell plates.” left out, “Cell biomass was estimated by staining cells with 100 μl per well methylene blue (Sigma M9140, 0.5% in 50:50 ethanol:water), and incubation at room temperature for at least 30 minutes. Stain was removed, and the plates rinsed under a gentle stream of water, and air-dried. To release stain from the cells 100 μl of solubilization solution was added (1% N-lauroyl sarcosine, Sodium salt, Sigma L5125, in PBS), and plates were shaken gently for about 30 minutes.” left out

[4] = Moisture sorption testing; format: physicochemical; conditions: humidities e.g. 20–75% relative humidity (RH)
Procedure: Approximately 12 mg of N-{3-Chloro-4-[(3-fluorobenzyl) oxy]phenyl}-6-[5-({[2-(methanesulphonyl)ethyl]amino}methyl)-2-furyl]-4-quinazolinamine ditosylate monohydrate salt prepared according to Example 10 was weighed into a sample pan of a moisture sorption apparatus (model number SGA-100, made by VTI). The sample was dried at 60° C. under a nitrogen stream until the weight loss was less than 0.015% in 5 minutes. The relative humidity (RH) was then increased (adsorption) to 5, 15, 25, 35, 45, 55, 65, 75, 85 and 95%—at each step, equilibrium was defined as a weight change of less than 0.015% in 5 minutes. The relative humidity was then decreased (desorption) to 90, 80, 70, 60, 50, 40, 30, and 20% with the same equilibrium condition. The sorption curve (y-axis: Weight—% change vs. x-axis: % RH) is depicted in FIG. 3(a).
Approximately 15 mg of N-{3-Chloro-4-[(3-fluorobenzyl) oxy]phenyl}-6-[5-({[2-(methanesulphonyl)ethyl]amino}methyl)-2-furyl]-4-quinazolinamine di-HCl salt was weighed into a sample pan of a moisture sorption apparatus (model number SGA-100, made by VTI). The sample was dried at 60° C. under a nitrogen stream until the weight loss was less than 0.015% in 5 minutes. The relative humidity was then increased (adsorption) to 5, 15, 25, 35, 45, 55, 65, 75, 85 and 95%—at each step, equilibrium was defined as a weight change of less than 0.015% in 5 minutes. […]

[5] = 72 h, HN5 cells, 3 days, methylene blue

SMILES: CS(=O)(=O)CCNCc1ccc(-c2ccc3ncnc(Nc4ccc(OCc5cccc(F)c5)c(Cl)c4)c3c2)o1 [Example 10, N-{3-Chloro-4-[(3-fluorobenzyl)oxy]phenyl}-6-[5-({[2-(methanesulphonyl)ethyl]amino}methyl)-2-furyl]-4-quinazolinamine ditosylate monohydrate]
- RH at which the monohydrate becomes the thermodynamically stable form ([1]; slurry equilibration, remains stable up through 100% RH): 7–15 % RH

SMILES: CS(=O)(=O)CCNCc1ccc(-c2ccc3ncnc(Nc4ccc(OCc5cccc(F)c5)c(Br)c4)c3c2)o1 [Example 12, (4-(3-Fluoro-benzyloxy)-3-bromophenyl)-(6-(5-((2-methanesulphonyl-ethylamino)-methyl)-furan-2-yl)quinazolin-4-yl)-amine Ditosylate]
- IC50 [2, 5]: < 5 µM

SMILES: CS(=O)(=O)CCNCc1ccc(-c2ccc3ncnc(Nc4ccc(OCc5cccc(F)c5)c(Cl)c4)c3c2)o1 [Example 8, N-{3-Chloro-4-[(3-fluorobenzyl)oxy]phenyl}-6-[5-({[2-(methanesulphonyl)ethyl]amino}methyl)-2-furyl]-4-quinazolinamine ditosylate anhydrate]
- IC50 [3]: < 5 µM
- IC50 ([2]; HN5, 72 h): < 5 µM

SMILES: CS(=O)(=O)CCNCc1ccc(-c2ccc3ncnc(Nc4ccc(OCc5cccc(F)c5)c(Cl)c4)c3c2)o1.Cl.Cl [di-HCl salt, N-{3-Chloro-4-[(3-fluorobenzyl)oxy]phenyl}-6-[5-({[2-(methanesulphonyl)ethyl]amino}methyl)-2-furyl]-4-quinazolinamine di-HCl salt]
- Water sorption [4]: sorbs very large amounts of water

SMILES: CS(=O)(=O)CCNCc1nc(-c2ccc3ncnc(Nc4ccc(OCc5cccc(F)c5)c(Cl)c4)c3c2)cs1 [Example 13, (4-(3-Fluoro-benzyloxy)-3-chlorophenyl)-(6-(2-((2-methanesulphonyl-ethylamino)-methyl)-thiazol-4-yl)quinazolin-4-yl)-amine ditosylate]
- IC50 [2, 5]: < 5 µM

SMILES: CS(=O)(=O)CCNCc1ccc(-c2ccc3ncnc(Nc4ccc(OCc5cccc(F)c5)c(Cl)c4)c3c2)o1 [N-{3-Chloro-4-[(3-fluorobenzyl)oxy]phenyl}-6-[5-({[2-(methanesulphonyl)ethyl]amino}methyl)-2-furyl]-4-quinazolinamine ditosylate]
- Equilibrium Form ([1]; water volume 0%, RH 0%): Anhydrate
- Equilibrium Form ([1]; water volume 2%, RH 7%): Anhydrate
- Equilibrium Form ([1]; water volume 5%, RH 15%): Monohydrate
- Equilibrium Form ([1]; water volume 10%, RH 26%): Monohydrate
- Equilibrium Form ([1]; water volume 20%, RH 43%): Monohydrate
- Equilibrium Form ([1]; water volume 40%, RH 66%): Monohydrate
- Equilibrium Form ([1]; water volume 60%, RH 80%): Monohydrate
- Equilibrium Form ([1]; water volume 80%, RH 91%): Monohydrate
- Equilibrium Form ([1]; water volume 90%, RH 95%): Monohydrate
- Equilibrium Form ([1]; water volume 100%, RH 100%): Monohydrate
